This note sets out measurements from patent US7932051B2, “Blood and urine test” (R-Biopharm AG, priority 2003, dated 2011).

Like-named read-outs stand apart in the source and are kept apart here.

For the test, the system named is microbial inhibition test (Premi®Test). How it is done:
Urine samples were examined using microbial inhibition test ampoules produced according to the methods described in EP 0005891 with the nutrients present in the agar. Said test is also known as Premi®Test (commercially available from DSM, Delft, The Netherlands).
Samples were examined as described in Example 1. CaCl2.2H2O was dissolved in water or chicken meat fluid, in concentrations of 0, 0.0078, 0.0156, 0.0312, 0.0625, 0.125, 0.25, 0.5 and 1 M. The samples were added to the test ampoules. After a pre-incubation for 20 minutes at room temperature the sample was removed and the test was incubated in a water bath at 64±1° C. following the instructions of the manufacturer. The results were obtained after 165 minutes for chicken meat fluid and 185 minutes in case of water, by reading the change of color from purple to yellow.

Regarding `[Ca+2].[Cl-].[Cl-]` [CaCl2, Calcium Chloride], the “Color observed in microbial inhibition test” value (CaCl2 0.0078 M in chicken meat fluid, read after 165 minutes) is reported as “Yellow”; the “Color observed in microbial inhibition test” value (CaCl2 0.0078 M in water, read after 185 minutes) is “Yellow”; the “Color observed in microbial inhibition test” value (CaCl2 0.0156 M in chicken meat fluid, read after 165 minutes) was “Yellow”; the “Color observed in microbial inhibition test” value (CaCl2 0.0156 M in water, read after 185 minutes) is on record as “Yellow”; the “Color observed in microbial inhibition test” value (CaCl2 0.0312 M in chicken meat fluid, read after 165 minutes) was “Yellow”; the “Color observed in microbial inhibition test” value (CaCl2 0.0312 M in water, read after 185 minutes) is “Yellow”. In addition, the “Color observed in microbial inhibition test” value is “Yellow” (CaCl2 0.0625 M in chicken meat fluid, read after 165 minutes); “Yellow” (CaCl2 0.0625 M in water, read after 185 minutes); “Yellow” (CaCl2 0.125 M in chicken meat fluid, read after 165 minutes); “Yellow” (CaCl2 0.125 M in water, read after 185 minutes); “Yellow” (CaCl2 0.25 M in chicken meat fluid, read after 165 minutes); “Yellow” (CaCl2 0.25 M in water, read after 185 minutes). The “Color observed in microbial inhibition test” value is “Yellow” (CaCl2 0.5 M in chicken meat fluid, read after 165 minutes); “Purple” (CaCl2 0.5 M in water, read after 185 minutes); “Yellow” (CaCl2 1 M in chicken meat fluid, read after 165 minutes); “Purple” (CaCl2 1 M in water, read after 185 minutes). In addition, for the setting “in chicken meat fluid”, the “Concentration of CaCl2 with no inhibition” value is listed as “up to 1 M”. Further, the “Concentration of CaCl2 that does not influence the test results” value (in water) is on record as “up to 0.25 M”.
